{
  "source": "patent US6995188B2",
  "about": "(priority 2002, dated 2006)",
  "assay": "SGLU1 multiple dose toxicology in vivo",
  "parameters": "species or system mice; key to Death: “—” indicates no compound-related finding",
  "protocol": "Further studies were performed to determine the dose-limiting toxicity associated with the administration of repeated doses in groups of mice. Tables 11–16 below describe the results of the multiple-dose toxicology studies for MER-1 and Tables 17–21 describe results of the multiple-dose toxicology of SGLU-1.\nThe results of the SGLU-1 Multiple Dose I.V. are summarized as follows: Five mice/sex were administered 5 daily intravenous injections of SGLU via the tail vein at doses of 50, 100, 150, 200, 250, 300, and 350 mg/kg/day. All surviving mice were held for 28 days, sacrificed, and designated tissues collected, formalin fixed, and examined.",
  "note": "Several values for one entry are separate records, joined by “and”; a condition that tells them apart may be missing. Equal entries are not always repeated.",
  "data": [
    {"smiles": "C[As](C)SC[C@H](NC(=O)CC[C@H](N)C(=O)O)C(=O)NCC(=O)O", "note": "[SGLU1, S-(dimethylarsino) glutathione]", "values": [
      {"measurement": "Clinical Signs", "setting": "50 mg/kg/day IV daily x5", "result": "None."},
      {"measurement": "Death", "setting": "50 mg/kg/day IV daily x5", "result": "—"},
      {"measurement": "Kidney: Murine progressive glomerulonephropathy, incidence", "setting": "50 mg/kg/day, F", "result": "1/5"},
      {"measurement": "Liver: Pyogranuloma, focal, incidence", "setting": "50 mg/kg/day, F", "result": "1/5"},
      {"measurement": "Lung: Hemorrhage, focal, incidence", "setting": "50 mg/kg/day, F", "result": "1/5"},
      {"measurement": "Number of animals/dose that tolerated 5 doses", "setting": "50 mg/kg/day, F", "result": "5/5"},
      {"measurement": "Body Weights Avg.", "setting": "50 mg/kg/day, Female", "result": 25, "unit": "grams"},
      {"measurement": "Liver: Pyogranuloma, focal, incidence", "setting": "50 mg/kg/day, M", "result": "1/5"},
      {"measurement": "Lung: Atelectasis, incidence", "setting": "50 mg/kg/day, M", "result": "1/5"},
      {"measurement": "Lung: Pleural adhesion, focal, incidence", "setting": "50 mg/kg/day, M", "result": "1/5"},
      {"measurement": "Number of animals/dose that tolerated 5 doses", "setting": "50 mg/kg/day, M", "result": "5/5"},
      {"measurement": "Body Weights Avg.", "setting": "50 mg/kg/day, Male", "result": 25, "unit": "grams"},
      {"measurement": "Clinical Signs", "setting": "100 mg/kg/day IV daily x5", "result": "None."},
      {"measurement": "Death", "setting": "100 mg/kg/day IV daily x5", "result": "—"},
      {"measurement": "Kidney: Inflammation, focal, incidence", "setting": "100 mg/kg/day, F", "result": "2/5"},
      {"measurement": "Liver: Pyogranuloma, focal, incidence", "setting": "100 mg/kg/day, F", "result": "5/5"},
      {"measurement": "Number of animals/dose that tolerated 5 doses", "setting": "100 mg/kg/day, F", "result": "5/5"},
      {"measurement": "Body Weights Avg.", "setting": "100 mg/kg/day, Female", "result": 24, "unit": "grams"},
      {"measurement": "Liver: Pyogranuloma, focal, incidence", "setting": "100 mg/kg/day, M", "result": "1/5"},
      {"measurement": "Number of animals/dose that tolerated 5 doses", "setting": "100 mg/kg/day, M", "result": "5/5"},
      {"measurement": "Body Weights Avg.", "setting": "100 mg/kg/day, Male", "result": 23, "unit": "grams"},
      {"measurement": "Clinical Signs", "setting": "150 mg/kg/day IV daily x5", "result": "None."},
      {"measurement": "Death", "setting": "150 mg/kg/day IV daily x5", "result": "—"},
      {"measurement": "Liver: Inflammation, portal, incidence", "setting": "150 mg/kg/day, F", "result": "2/5"},
      {"measurement": "Liver: Pyogranuloma, focal, incidence", "setting": "150 mg/kg/day, F", "result": "3/5"},
      {"measurement": "Number of animals/dose that tolerated 5 doses", "setting": "150 mg/kg/day, F", "result": "5/5"},
      {"measurement": "Body Weights Avg.", "setting": "150 mg/kg/day, Female", "result": 25, "unit": "grams"},
      {"measurement": "Kidney: Inflammation, focal, incidence", "setting": "150 mg/kg/day, M", "result": "1/5"},
      {"measurement": "Liver: Pyogranuloma, focal, incidence", "setting": "150 mg/kg/day, M", "result": "1/5"},
      {"measurement": "Lung: Inflammation, focal, incidence", "setting": "150 mg/kg/day, M", "result": "1/5"},
      {"measurement": "Number of animals/dose that tolerated 5 doses", "setting": "150 mg/kg/day, M", "result": "5/5"},
      {"measurement": "Tail: Acute necrosis with vasculitis, thrombosis, and hemorrhage, incidence", "setting": "150 mg/kg/day, M", "result": "1/5"},
      {"measurement": "Tail: Ulcerative dermatitis, incidence", "setting": "150 mg/kg/day, M", "result": "1/5"},
      {"measurement": "Testes: Seminiferous tubular degeneration, incidence", "setting": "150 mg/kg/day, M", "result": "1/5"},
      {"measurement": "Body Weights Avg.", "setting": "150 mg/kg/day, Male", "result": 23, "unit": "grams"},
      {"measurement": "Clinical Signs", "setting": "200 mg/kg/day IV daily x5", "result": "2 F tail necrosis: amputate"},
      {"measurement": "Death", "setting": "200 mg/kg/day IV daily x5", "result": "—"},
      {"measurement": "Kidney: Inflammation, focal, incidence", "setting": "200 mg/kg/day, F", "result": "2/5"},
      {"measurement": "Liver: Hepatocyte hypertrophy: Centrilobular (compatible with SER), incidence", "setting": "200 mg/kg/day, F", "result": "1/5"},
      {"measurement": "Liver: Increased mitoses, incidence", "setting": "200 mg/kg/day, F", "result": "1/5"},
      {"measurement": "Liver: Inflammation, portal, incidence", "setting": "200 mg/kg/day, F", "result": "3/5"},
      {"measurement": "Liver: Pyogranuloma, focal, incidence", "setting": "200 mg/kg/day, F", "result": "3/5"},
      {"measurement": "Number of animals/dose that tolerated 5 doses", "setting": "200 mg/kg/day, F", "result": "5/5"},
      {"measurement": "Tail: Acute necrosis with vasculitis, thrombosis, and hemorrhage, incidence", "setting": "200 mg/kg/day, F", "result": "4/5"},
      {"measurement": "Tail: Ulcerative dermatitis, incidence", "setting": "200 mg/kg/day, F", "result": "2/5"},
      {"measurement": "Body Weights Avg.", "setting": "200 mg/kg/day, Female", "result": 24, "unit": "grams"},
      {"measurement": "Epididymus: Oligospermia, incidence", "setting": "200 mg/kg/day, M", "result": "1/5"},
      {"measurement": "Heart: Interstitial fat, increased, incidence", "setting": "200 mg/kg/day, M", "result": "1/5"},
      {"measurement": "Liver: Ito cell hypertrophy, incidence", "setting": "200 mg/kg/day, M", "result": "1/5"},
      {"measurement": "Liver: Pyogranuloma, focal, incidence", "setting": "200 mg/kg/day, M", "result": "2/5"},
      {"measurement": "Number of animals/dose that tolerated 5 doses", "setting": "200 mg/kg/day, M", "result": "5/5"},
      {"measurement": "Testes: Seminiferous tubular degeneration, incidence", "setting": "200 mg/kg/day, M", "result": "1/5"},
      {"measurement": "Body Weights Avg.", "setting": "200 mg/kg/day, Male", "result": 24, "unit": "grams"},
      {"measurement": "Clinical Signs", "setting": "250 mg/kg/day IV daily x5", "result": "2 M tail necr.: amputate"},
      {"measurement": "Liver: Focus of Alteration, eosinophilic, incidence", "setting": "250 mg/kg/day, F", "result": "1/5"},
      {"measurement": "Liver: Hepatocyte hypertrophy: Centrilobular (compatible with SER), incidence", "setting": "250 mg/kg/day, F", "result": "1/5"},
      {"measurement": "Liver: Inflammation, portal, incidence", "setting": "250 mg/kg/day, F", "result": "2/5"},
      {"measurement": "Liver: Pyogranuloma, focal, incidence", "setting": "250 mg/kg/day, F", "result": "1/5"},
      {"measurement": "Lung: Inflammation, focal, incidence", "setting": "250 mg/kg/day, F", "result": "1/5"},
      {"measurement": "Number of animals/dose that tolerated 4 doses", "setting": "250 mg/kg/day, F", "result": "1/5"},
      {"measurement": "Number of animals/dose that tolerated 5 doses", "setting": "250 mg/kg/day, F", "result": "4/5"},
      {"measurement": "Body Weights Avg.", "setting": "250 mg/kg/day, Female", "result": 24, "unit": "grams"},
      {"measurement": "Epididymus: Oligospermia, incidence", "setting": "250 mg/kg/day, M", "result": "1/5"},
      {"measurement": "Liver: Hepatocyte hypertrophy: Centrilobular (compatible with SER), incidence", "setting": "250 mg/kg/day, M", "result": "5/5"},
      {"measurement": "Liver: Pyogranuloma, focal, incidence", "setting": "250 mg/kg/day, M", "result": "3/5"},
      {"measurement": "Number of animals/dose that tolerated 5 doses", "setting": "250 mg/kg/day, M", "result": "5/5"},
      {"measurement": "Tail: Acute necrosis with vasculitis, thrombosis, and hemorrhage, incidence", "setting": "250 mg/kg/day, M", "result": "2/5"},
      {"measurement": "Tail: Ulcerative dermatitis, incidence", "setting": "250 mg/kg/day, M", "result": "1/5"},
      {"measurement": "Testes: Seminiferous tubular degeneration, incidence", "setting": "250 mg/kg/day, M", "result": "2/5"},
      {"measurement": "Body Weights Avg.", "setting": "250 mg/kg/day, Male", "result": 24, "unit": "grams"},
      {"measurement": "Clinical Signs", "setting": "300 mg/kg/day IV daily x5", "result": "Slight decr. activity and 1 F tail necr.: amputate"}
    ]}
  ]
}
